Source: patent publication US11331314B2, “Amine substituted triazole derivatives and uses thereof” (Bayer Pharma Aktiengesellschaft, priority 2017, dated 2022)

How the values were obtained:
[1] = biological target: human V1a receptor (Homo sapiens, UniProt P37288); assay: Cellular in vitro assay for determining vasopressin receptor activity, V1a receptor cell line (photoprotein luminescence); type: cell-based; settings: for IC50: CHO cell line transfected with the human V1a receptor, agonist [Arg8]-vasopressin at EC50 concentration, read-out: IC50 hV1a; for ratio IC50 hV2/hV1a: selectivity ratio of the cellular IC50 values
Procedure, shortened: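 CHO K1 cells stably expressing human V1a receptor with aequorin photoprotein, loaded overnight with coelenterazine. Compounds preincubated 10 min at various concentrations, then challenged with [Arg^8]-vasopressin at EC50 concentration. Calcium-driven luminescence read immediately; IC50 values derived.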

[2] = biological target: T1, human V2 receptor (Homo sapiens, UniProt P30518); assay: Cellular in vitro assay for determining vasopressin receptor activity, V2 receptor cell line (CRE-luciferase); type: cell-based; settings: CHO cell line transfected with the human V2 receptor; agonist [Arg8]-vasopressin at EC50 concentration; read-out: IC50 hV2
T1 construct: expressed in transfected cells; host or cells: CHO K1 (ATCC) expressing firefly luciferase under a CRE-responsive promoter
T1 sequence (P30518 whole entry): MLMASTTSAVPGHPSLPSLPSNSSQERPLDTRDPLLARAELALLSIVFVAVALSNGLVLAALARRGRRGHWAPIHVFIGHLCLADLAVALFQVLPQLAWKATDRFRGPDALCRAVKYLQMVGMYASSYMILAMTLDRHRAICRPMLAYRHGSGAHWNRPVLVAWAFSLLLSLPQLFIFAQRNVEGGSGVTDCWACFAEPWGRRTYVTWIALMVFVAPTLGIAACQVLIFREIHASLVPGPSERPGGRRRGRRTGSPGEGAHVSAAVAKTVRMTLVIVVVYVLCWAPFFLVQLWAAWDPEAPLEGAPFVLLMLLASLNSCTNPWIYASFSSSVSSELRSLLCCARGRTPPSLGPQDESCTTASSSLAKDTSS

human V1a receptor, sequence (P37288 whole entry): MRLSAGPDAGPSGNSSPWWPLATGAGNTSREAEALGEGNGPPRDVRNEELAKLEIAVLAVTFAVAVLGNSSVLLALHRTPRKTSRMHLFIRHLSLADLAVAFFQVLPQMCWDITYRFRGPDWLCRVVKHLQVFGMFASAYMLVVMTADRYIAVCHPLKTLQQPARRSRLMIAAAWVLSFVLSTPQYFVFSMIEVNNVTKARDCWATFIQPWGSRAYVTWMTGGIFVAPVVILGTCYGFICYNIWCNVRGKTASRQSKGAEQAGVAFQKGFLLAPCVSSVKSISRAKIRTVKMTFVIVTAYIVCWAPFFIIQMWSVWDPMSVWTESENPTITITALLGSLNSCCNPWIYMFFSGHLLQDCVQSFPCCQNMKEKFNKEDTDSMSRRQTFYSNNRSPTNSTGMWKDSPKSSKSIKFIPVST

IC50 [1] [nM]	ratio IC50 hV2/hV1a [1]	IC50 [2] [nM]	Compound
0.9	24.4	22	NCCNc1nc(Cn2nc(-c3ccc(Cl)cc3)n(C[C@H](O)C(F)(F)F)c2=O)nn1-c1ccccc1Cl [Example 70, 2-({5-[(2-Aminoethyl)amino]-1-(2-chlorophenyl)-1H-1,2,4-triazol-3-yl}methyl)-5-(4-chlorophenyl)-4-[(2S)-3,3,3-trifluoro-2-hydroxypropyl]-2,4-dihydro-3H-1,2,4-triazol-3-one]
0.44	5.5	2.4	CC(=O)NCCNc1nc(Cn2nc(-c3ccc(Cl)cc3)n(C[C@H](O)C(F)(F)F)c2=O)nn1-c1ccccc1Cl [Example 71, N-(2-{[1-(2-Chlorophenyl)-3-({3-(4-chlorophenyl)-5-oxo-4-[(2S)-3,3,3-trifluoro-2-hydroxypropyl]-4,5-dihydro-1H-1,2,4-triazol-1-yl}methyl)-1H-1,2,4-triazol-5-yl]amino}ethyl)acetamide]
0.58	30.2	17.5	O=c1n(Cc2nc(N3CCNCC3)n(-c3ccccc3Cl)n2)nc(-c2ccc(Cl)cc2)n1C[C@H](O)C(F)(F)F [Example 72, 5-(4-Chlorophenyl)-2-{[1-(2-chlorophenyl)-5-(piperazin-1-yl)-1H-1,2,4-triazol-3-yl]methyl}-4-[(2S)-3,3,3-trifluoro-2-hydroxypropyl]-2,4-dihydro-3H-1,2,4-triazol-3-one]
1.13	8.4	9.5	O=c1n(Cc2nc(NCC3CS(=O)(=O)C3)n(-c3ccccc3Cl)n2)nc(-c2ccc(Cl)cc2)n1C[C@H](O)C(F)(F)F [Example 73, 5-(4-Chlorophenyl)-2-{[1-(2-chlorophenyl)-5-{[(1,1-dioxidothietan-3-yl)methyl]amino}-1H-1,2,4-triazol-3-yl]methyl}-4-[(2S)-3,3,3-trifluoro-2-hydroxypropyl]-2,4-dihydro-3H-1,2,4-triazol-3-one]
0.48	7.5	3.6	NC(=O)C1CN(c2nc(Cn3nc(-c4ccc(Cl)cc4)n(C[C@H](O)C(F)(F)F)c3=O)nn2-c2ccccc2Cl)C1 [Example 74, 1-[1-(2-Chlorophenyl)-3-({3-(4-chlorophenyl)-5-oxo-4-[(2S)-3,3,3-trifluoro-2-hydroxypropyl]-4,5-dihydro-1H-1,2,4-triazol-1-yl}methyl)-1H-1,2,4-triazol-5-yl]azetidine-3-carboxamide]
0.81	11.0	8.9	CC(=O)N1CCN(c2nc(Cn3nc(-c4ccc(Cl)cc4)n(C[C@H](O)C(F)(F)F)c3=O)nn2-c2ccccc2Cl)CC1 [Example 75, 2-{[5-(4-Acetylpiperazin-1-yl)-1-(2-chlorophenyl)-1H-1,2,4-triazol-3-yl]methyl}-5-(4-chlorophenyl)-4-[(2S)-3,3,3-trifluoro-2-hydroxypropyl]-2,4-dihydro-3H-1,2,4-triazol-3-one]
0.42	108.4	45	CC1(C)CN(c2nc(Cn3nc(-c4ccc(Cl)cc4)n(C[C@H](O)C(F)(F)F)c3=O)nn2-c2ccccc2Cl)CCN1 [Example 76, 5-(4-Chlorophenyl)-2-{[1-(2-chlorophenyl)-5-(3,3-dimethylpiperazin-1-yl)-1H-1,2,4-triazol-3-yl]methyl}-4-[(2S)-3,3,3-trifluoro-2-hydroxypropyl]-2,4-dihydro-3H-1,2,4-triazol-3-one]
0.79	2.1	1.63	CC1(CNc2nc(Cn3nc(-c4ccc(Cl)cc4)n(C[C@H](O)C(F)(F)F)c3=O)nn2-c2ccccc2Cl)COC1 [Example 78, 5-(4-Chlorophenyl)-2-{[1-(2-chlorophenyl)-5-{[(3-methyloxetan-3-yl)methyl]amino}-1H-1,2,4-triazol-3-yl]methyl}-4-[(2S)-3,3,3-trifluoro-2-hydroxypropyl]-2,4-dihydro-3H-1,2,4-triazol-3-one]
0.32	6.8	2.19	COCCNc1nc(Cn2nc(-c3ccc(Cl)cc3)n(C[C@H](O)C(F)(F)F)c2=O)nn1-c1ccccc1Cl [Example 79, 5-(4-Chlorophenyl)-2-({1-(2-chlorophenyl)-5-[(2-methoxyethyl)amino]-1H-1,2,4-triazol-3-yl}methyl)-4-[(2S)-3,3,3-trifluoro-2-hydroxypropyl]-2,4-dihydro-3H-1,2,4-triazol-3-one]
0.36	7.8	2.79	O=c1n(Cc2nc(NCCO)n(-c3ccccc3Cl)n2)nc(-c2ccc(Cl)cc2)n1C[C@H](O)C(F)(F)F [Example 80, 5-(4-Chlorophenyl)-2-({1-(2-chlorophenyl)-5-[(2-hydroxyethyl)amino]-1H-1,2,4-triazol-3-yl}methyl)-4-[(2S)-3,3,3-trifluoro-2-hydroxypropyl]-2,4-dihydro-3H-1,2,4-triazol-3-one]
1.6	11.0	17.7	O=c1n(Cc2nc(N3CC(F)(F)C3)n(-c3ccccc3Cl)n2)nc(-c2ccc(Cl)cc2)n1C[C@H](O)C(F)(F)F [Example 81, 5-(4-Chlorophenyl)-2-{[1-(2-chlorophenyl)-5-(3,3-difluoroazetidin-1-yl)-1H-1,2,4-triazol-3-yl]methyl}-4-[(2S)-3,3,3-trifluoro-2-hydroxypropyl]-2,4-dihydro-3H-1,2,4-triazol-3-one]
0.86	7.5	6.47	CC(C)(O)CNc1nc(Cn2nc(-c3ccc(Cl)cc3)n(C[C@H](O)C(F)(F)F)c2=O)nn1-c1ccccc1Cl [Example 82, 5-(4-Chlorophenyl)-2-({1-(2-chlorophenyl)-5-[(2-hydroxy-2-methylpropyl)amino]-1H-1,2,4-triazol-3-yl}methyl)-4-[(2S)-3,3,3-trifluoro-2-hydroxypropyl]-2,4-dihydro-3H-1,2,4-triazol-3-one]
0.56	25.7	14.3	O=c1n(Cc2nc(N3CCOCC3)n(-c3ccccc3Cl)n2)nc(-c2ccc(Cl)cc2)n1C[C@H](O)C(F)(F)F [Example 83, 5-(4-Chlorophenyl)-2-{[1-(2-chlorophenyl)-5-(morpholin-4-yl)-1H-1,2,4-triazol-3-yl]methyl}-4-[(2S)-3,3,3-trifluoro-2-hydroxypropyl]-2,4-dihydro-3H-1,2,4-triazol-3-one]
0.83	14.4	12	CN(CCO)c1nc(Cn2nc(-c3ccc(Cl)cc3)n(C[C@H](O)C(F)(F)F)c2=O)nn1-c1ccccc1Cl [Example 84, 5-(4-Chlorophenyl)-2-({1-(2-chlorophenyl)-5-[(2-hydroxyethyl)(methyl)amino]-1H-1,2,4-triazol-3-yl}methyl)-4-[(2S)-3,3,3-trifluoro-2-hydroxypropyl]-2,4-dihydro-3H-1,2,4-triazol-3-one]
0.58	16.9	9.76	COCCN(C)c1nc(Cn2nc(-c3ccc(Cl)cc3)n(C[C@H](O)C(F)(F)F)c2=O)nn1-c1ccccc1Cl [Example 85, 5-(4-Chlorophenyl)-2-({1-(2-chlorophenyl)-5-[(2-methoxyethyl)(methyl)amino]-1H-1,2,4-triazol-3-yl}methyl)-4-[(2S)-3,3,3-trifluoro-2-hydroxypropyl]-2,4-dihydro-3H-1,2,4-triazol-3-one]
0.98	6.8	6.66	O=c1n(Cc2nc(N3CC4(COC4)C3)n(-c3ccccc3Cl)n2)nc(-c2ccc(Cl)cc2)n1C[C@H](O)C(F)(F)F [Example 86, 5-(4-Chlorophenyl)-2-{[1-(2-chlorophenyl)-5-(2-oxa-6-azaspiro[3.3]hept-6-yl)-1H-1,2,4-triazol-3-yl]methyl}-4-[(2S)-3,3,3-trifluoro-2-hydroxypropyl]-2,4-dihydro-3H-1,2,4-triazol-3-one]

Compound	IC50 [1] [nM]	ratio IC50 hV2/hV1a [1]	IC50 [2] [nM]
NC(=O)[C@@H]1CCN(c2nc(Cn3nc(-c4ccc(Cl)cc4)n(C[C@H](O)C(F)(F)F)c3=O)nn2-c2ccccc2Cl)C1 [Example 56, (3R)-1-[1-(2-Chlorophenyl)-3-({3-(4-chlorophenyl)-5-oxo-4-[(2S)-3,3,3-trifluoro-2-hydroxypropyl]-4,5-dihydro-1H-1,2,4-triazol-1-yl}methyl)-1H-1,2,4-triazol-5-yl]pyrrolidine-3-carboxamide]	0.73	7.7	5.65
NC(=O)[C@H]1CCN(c2nc(Cn3nc(-c4ccc(Cl)cc4)n(C[C@H](O)C(F)(F)F)c3=O)nn2-c2ccccc2Cl)C1 [Example 57, (3S)-1-[1-(2-Chlorophenyl)-3-({3-(4-chlorophenyl)-5-oxo-4-[(2S)-3,3,3-trifluoro-2-hydroxypropyl]-4,5-dihydro-1H-1,2,4-triazol-1-yl}methyl)-1H-1,2,4-triazol-5-yl]pyrrolidine-3-carboxamide]	0.74	6.6	4.9
NC(=O)[C@@H]1CCCN1c1nc(Cn2nc(-c3ccc(Cl)cc3)n(C[C@H](O)C(F)(F)F)c2=O)nn1-c1ccccc1Cl [Example 58, 1-[1-(2-Chlorophenyl)-3-({3-(4-chlorophenyl)-5-oxo-4-[(2S)-3,3,3-trifluoro-2-hydroxypropyl]-4,5-dihydro-1H-1,2,4-triazol-1-yl}methyl)-1H-1,2,4-triazol-5-yl]-L-prolinamide]	1.65	13.3	22
NC(=O)[C@H]1CCCN1c1nc(Cn2nc(-c3ccc(Cl)cc3)n(C[C@H](O)C(F)(F)F)c2=O)nn1-c1ccccc1Cl [Example 59, 1-[1-(2-Chlorophenyl)-3-({3-(4-chlorophenyl)-5-oxo-4-[(2S)-3,3,3-trifluoro-2-hydroxypropyl]-4,5-dihydro-1H-1,2,4-triazol-1-yl}methyl)-1H-1,2,4-triazol-5-yl]-D-prolinamide]	2.3	17.2	39.5
